Experiments:
AhR^−/− mice = assay: TNBS-induced colitis in AhR^−/− mice; assay type: in vivo, mouse; conditions: 20 mg/kg every 12 h; for serum IL-6 in AhR^−/− mice / serum TNF-α in AhR^−/− mice / shortening of colon lengths in AhR^−/− mice: 60 h post TNBS
Procedure: FIG. 8: UroA/UAS03 exert beneficial activities through AhR-dependent pathways. (A-F) Colitis was induced using TNBS in C57BL/6 (WT) and AhR^−/− mice (n=4/group 7-8 week old age). Mice were treated with Veh or UroA/UAS03 (20 mg/kg bodyweight) every 12 h post TNBS administration and mice were euthanized at post 60 h TNBS administration. (A) TNBS-induced colitis experimental design and treatment regimen. (B) Percent body weight loss (No TNBS-Solid black line; Veh+TNBS− Solid red line; UroA+TNBS− Solid blue line; UAS03+TNBS− Solid purple line), (C) representative colon images, (D) colon lengths, (E) gut permeability, (F) serum levels of IL-6 and TNF-α were determined. Statistical analysis was performed (unpaired t-test) using Graphpad Prism software. Error bars, ±SEM ***p<0.001; **p<0.01 *p<0.05. (G) AhR-Nrf2 dependent tight junction protein regulation by UroA/UAS03. UroA/UAS03 (L:ligands) bind to AhR and activate its nuclear translocation to induce expression of Cyp1A1 and Nrf2. […] (H) LPS (50 ng/ml)-induced IL-6 levels were measured in the presence of Vehicle or UroA or UAS03 (0.1, 1, 10, 20, 30 and 50 μM) in bone marrow derived macrophages (BMDM) from wild type (WT), Nrf2^−/− and AhR^−/− mice. The data is representative of two independent experiments with triplicates. Statistical analysis was performed (unpaired t-test) using Graphpad Prism software. Error bars, ±SEM ***p<0.001; **p<0.01 *p<0.05.
2,4,6-Trinitrobenzenesulfonic acid (TNBS)-induced colitis: Male C57BL/6 or Nrf2^−/− mice (6-8 week old age mice) were anesthetized with ketamine/xylazine (100 mg/12.5 mg/kg IP) mixture and administered with single dose of TNBS (2.5 mg/mice; Sigma Aldrich, USA) in 50% ethanol. After administration of TNBS, mice were held upside down for 30-60 sec to ensure proper distribution of TNBS in the colon. Control group received 50% ethanol without TNBS. Mice with TNBS were randomly divided into three groups, viz. vehicle (0.25% sodium carboxymethylcellulose (CMC)), UroA and UAS03. UroA or UAS03 was resuspended in 0.25% sodium-CMC at desired concentrations. The mice were given orally Veh or UroA or UAS03 in 100 μl at desired concentrations (4 or 20 mg/kg/body weight). The treatment started after 12 hours of TNBS administration and every 12 hours thereafter up to 72 hours. The experiment was terminated post 60 h TNBS, where AhR^−/− mice were involved. In some experiments, we treated only once at post 12 h TNBS administration. TNBS administered and control mice were euthanized for tissue and plasma collection after 80 hours of TNBS/ethanol treatment. Mice were examined for colitis phenotype.

C57BL/6 mice = assay: In vivo Evans Blue permeability assay (LPS); set-up: species or system mouse; conditions: LPS 100 μg i.p.; for LPS-induced TNF-α levels in serum and BAL fluid: 20 mg/kg; for tissue accumulation of Evans Blue (lung and liver): 20 mg/kg after 1 h and 18 h
Procedure: Acute intoxication of alcohol can induce microvasculature leakage as well as direct exposure to endothelium leads to disruption of endothelial integrity. […] In addition, increased endothelial permeability enhances the extravasation of immune cells into liver leading to increased inflammation. To examine the effect of UroA/UAS03 on endothelial cell permeability, we utilized in vivo Evans Blue permeability assay. Briefly, C57BL/6 mice (n=4/group) were given LPS (100 μg) i.p. followed by treatment with UAS03 or UroA (20 mg/kg) after 1 h and 18 h. Evans blue (i.v.) was given to mice (24 h post LPS treatment) and 30 min later mice were euthanized and the Evans Blue from lung and liver tissues was extracted using formamide. The levels of Evans Blue was determined by OD at 620 nm. […] To evaluate direct impact of UroA or UAS03 on endothelial barrier function, we used in vivo Miles assay to test blood vessel permeability. We used vascular endothelial growth factor (VEGF) as vasodilator. In this assay, C57BL/6 mice (n=3 per group) were given vehicle or UroA or UAS03 (20 mg/kg; oral gavage). After 3 h, Evans blue (100 μL of 1% solution) was administered i.v. followed by intra-dermal administration of VEGF (2.5 ng/mouse) or PBS (control). After 30 min, mice were euthanized and the levels of Evans Blue in skin tissue surrounding the injection site was extracted and estimated as described previously (FIG. 36C). […] To understand molecular mechanisms of UroA/UAS03 mediated endothelial barrier function, we tested the effects of these compounds in Human Umbilical Vein Endothelial Cells (HUVECs). Endotoxins or inflammatory mediators are responsible for decreasing the cell-cell and cell-matrix adhesion leading to increased barrier gaps and permeability. The VE-Cadherin (CDH5), an adherins junction (AJ) protein, can maintain the integrity of endothelial junctions through homotypic interactions with adjacent cell.

[1] = system: Human Umbilical Vein Endothelial Cells (HUVECs); assay: HUVEC CDH5 expression and in vitro permeability; assay type: cell-based

Oc1ccc2c(c1)COc1cc(O)ccc1-2 [UAS03, 6H-benzo[c]chromene-3,8-diol]
rapid body weight loss in AhR^−/− mice treated with TNBS (AhR^−/− mice): some protective role
serum IL-6 in AhR^−/− mice (AhR^−/− mice): did not appear to reduce IL-6
serum TNF-α in AhR^−/− mice (AhR^−/− mice): slightly reduced
shortening of colon lengths in AhR^−/− mice (AhR^−/− mice): did not appear to protect
LPS-induced TNF-α levels in serum and BAL fluid (C57BL/6 mice): reduced LPS-induced TNF-α levels
tissue accumulation of Evans Blue (lung and liver) (C57BL/6 mice): reduced tissue accumulation of Evans Blue
expression of CDH5 (VE-Cadherin) [1]: increased the expression of CDH5

O=c1oc2cc(O)ccc2c2ccc(O)cc12 [UroA, 3,8-dihydroxy-6H-dibenzo[b,d]pyran-6-one]
serum IL-6 in AhR^−/− mice (AhR^−/− mice): did not appear to reduce IL-6
serum TNF-α in AhR^−/− mice (AhR^−/− mice): slightly reduced
shortening of colon lengths in AhR^−/− mice (AhR^−/− mice): did not appear to protect
LPS-induced TNF-α levels in serum and BAL fluid (C57BL/6 mice): reduced LPS-induced TNF-α levels
tissue accumulation of Evans Blue (lung and liver) (C57BL/6 mice): reduced tissue accumulation of Evans Blue
expression of CDH5 (VE-Cadherin) [1]: increased the expression of CDH5
